Test [1] in a line: Antioxidant activity assessed as DPPH radical scavenging activity. In kind it is functional. In general terms: Loss of DPPH colour is used to gauge radical scavenging.
Test [2] concerns SH-SY5Y. The test is described as follows: Neuroprotective activity against OGD/R induced cell injury in human SH-SY5Y cells assessed as increase in cell survival rate at 1 uM (reference value: 63.22 +/- 2.12%). In kind it is functional. Conditions: read-out: Survival.
A short description of test [3]: Antioxidant activity assessed as ABTS radical scavenging activity. In kind it is functional.
Test [4] is described as follows: Antioxidant activity assessed as DPPH radical scavenging activity at 8 uM relative to control. In kind it is functional.
Test [5] is described as follows: Antioxidant activity assessed as oxygen radical scavenging by measuring trolox equivalents. In kind it is functional.
The nature of test [6]: Antioxidant activity assessed as ABTS radical scavenging activity at 8 uM relative to control. In kind it is functional.
In test [7] the test system is SH-SY5Y. The test is described as follows: Neuroprotective activity against OGD/R induced cell injury in human SH-SY5Y cells assessed as reduction in cell shrinkage at 1 uM pretreated with OGD/R for 4 hrs followed by compound addition and measured after 24 hrs by light microscopic analysis. In kind it is functional, cell-based.
Test [8] has as its system SH-SY5Y. The test is described as follows: Neuroprotective activity against OGD/R induced cell injury in human SH-SY5Y cells assessed as reduction in cell crumpling at 1 uM pretreated with OGD/R for 4 hrs followed by compound addition and measured after 24 hrs by light microscopic analysis. In kind it is functional, cell-based.
The test system of test [9] is Mus musculus. The test is described as follows: Neuroprotective activity against tMCAO- induced brain injury in ICR mouse model assessed as reduction in infarct volume at 10 mg/kg, ip (reference value: 43.1%). In kind it is functional. Set-up: scale not given: the % may be the effect or the level left.
Test [10] relates to Mus musculus. The test is described as follows: Neuroprotective activity against tMCAO- induced brain injury in ICR mouse model assessed as appearance of abundant nissl granules at 10 mg/kg, ip by nissl staining based assay. In kind it is functional, organism-based.
The species named for test [11] is Mus musculus. The test is described as follows: Neuroprotective activity against tMCAO- induced brain injury in ICR mouse model assessed as appearance of tightly arranged neuronal cells in CA1 region by H and E staining based assay. In kind it is functional, organism-based.
A short description of test [12]: Metal chelating activity assessed as Cu2+ chelation by UV-Vis spectroscopy.
Test [13] relates to Mus musculus. The test is described as follows: Neuroprotective activity against tMCAO- induced brain injury in ICR mouse model assessed as restoration of pyramidal cells morphology at 10 mg/kg, ip by H and E staining based assay. In kind it is functional, organism-based.
Test [14] deals with Mus musculus. The test is described as follows: Neuroprotective activity against tMCAO- induced brain injury in ICR mouse model assessed as restoration of pyramidal cells size at 10 mg/kg, ip by H and E staining based assay. In kind it is functional, organism-based.
Test [15] relates to Mus musculus. The test is described as follows: Neuroprotective activity against tMCAO- induced brain injury in ICR mouse model assessed as appearance of regularly arranged neuronal nissl bodies at 10 mg/kg, ip by nissl staining based assay. In kind it is functional, organism-based.
Test [16] is described as follows: Antioxidant activity assessed as DPPH radical scavenging activity measured after 30 mins. In kind it is functional.
Test [17] is described as follows: Antioxidant activity assessed as DPPH radical scavenging activity measured after 30 mins by spectrophotometry assay. In kind it is functional.

Molecules are shown by their SMILES. ≈ marks a conversion by molar mass, not a printed value. Calls of active or inactive are those of the source. The rule behind the calls is not given here. Where only a bound is given, the exact number is not on record here.

One may read the IC50 as the concentration at which inhibition is half-maximal. For the compound `Oc1cc(C(F)(F)F)nn1-c1ncccc1C(F)(F)F`, the IC50 in test [1] (read-out: IC50) was greater than 120 µM; in test [3], 35.5 µM. Also, in the test on SH-SY5Y [2], the viability at 1 µM came out at 70.8%. Moreover, the Activity stood at 34.7% in test [4], 1.22 in [5] and 36.1% in [6].

With `Cc1c(C)c2c(c(C)c1O)CCC(C)(C(=O)O)O2` (stereo not given), in test [5], the Activity stood at 1.

As for `CC1=NN(c2ncc(Cl)cc2Cl)C(=O)C1`, the IC50 was greater than 120 µM in test [1] (read-out: IC50) and 19.4 µM in test [3]. In addition, the viability at 1 µM with SH-SY5Y [2] stood at 82.5%. Further, the Activity in test [4] was determined as 6.73%; in [5], 1.42; in test [6] it was 31.9%.

As for `Oc1cc(C(F)(F)F)nn1-c1ncc(F)cn1`, the IC50 in test [1] (read-out: IC50) was 45.5 µM; in [3], 16.3 µM. Also, in the test with SH-SY5Y [2], the viability at 1 µM turned out to be 80.5%. Further, the Activity in test [4] is 30.9%; in test [5], 1.07; in [6], 65.4%.

Consider `Cc1cc(O)n(-c2ccc(Cl)cn2)n1`, for which the IC50 in [1] (read-out: IC50) stood at 18.8 µM; in test [3], 14.8 µM. Also, in the test on SH-SY5Y [2], the viability at 1 µM stood at 73.4%. For the same compound, the Activity turned out to be 53% in [4], 1.27 in test [5] and 52% in test [6].

For `Cc1cc(O)n(-c2ccc(F)cn2)n1`, the half-inhibitory concentration (IC50) in test [1] (read-out: IC50) is 19.8 µM; in test [3], 13.8 µM. Moreover, the viability at 1 µM in the test with SH-SY5Y [2] came out at 89.5%. For the same compound, the values for the Activity in test [4], in test [5] and in test [6] were 21.4%, 1.06 and 51.6%, respectively.

Turning to `CC1=NN(c2ccccc2)C(=O)C1` [EDARAVONE], the half-inhibitory concentration (IC50) was 42.5 µM in test [1] (read-out: IC50) and 15.8 µM in test [3]. Further, the viability at 1 µM in the test on SH-SY5Y [2] was found to be 72.2%. Also, the Activity was found to be 21.4% in test [4], 1.46 in test [5] and 52.3% in test [6].

For the compound `O=C(O)C1CS[C@@H](c2cccc(F)c2F)N1` (stereo not given in full), the IC50 in test [1] (read-out: IC50) was found to be 830 µM.

As to `Cc1cc(O)n(-c2ncccc2C)n1`, the outcome (in the test on SH-SY5Y [7]; with SH-SY5Y [8]; in the test with Mus musculus [10]; in the test listed under Mus musculus [11]; in test [12]; in the test with Mus musculus [13]) was Active. Further, the outcome in the test with Mus musculus [14] and with Mus musculus [15] was Active. The IC50 in test [1] (read-out: IC50) was found to be 16.1 µM; in test [3], 13.7 µM. Also, the Activity with Mus musculus [9] came to 24.9%; in [4], 49.9%; in test [5], 1.88; in test [6], 54.7%. Also, in the test on SH-SY5Y [2], the viability at 1 µM worked out at 87%.

For the compound `Cc1cc(O)n(-c2ccc(CO)cn2)n1`, the results for the concentration for half-maximal inhibition (IC50) in [1] (read-out: IC50) and in test [3] were 32 µM and 20.5 µM, respectively. Besides, in the test on SH-SY5Y [2], the viability at 1 µM was found to be 81.7%. Besides, the Activity in test [4] worked out at 34.7%; in test [5], 0.8; in test [6], 46.4%.

As to `O=C1S/C(=C\c2cn(-c3ccccc3)nc2-c2ccc(O)cc2)C(=O)N1Cc1ccccc1`, the concentration for half-maximal inhibition (IC50) in test [16] came to 110.8 µg/mL (≈ 244 µM).

Consider `Cc1cc(O)n(-c2cccc(CO)n2)n1`, for which the concentration for half-maximal inhibition (IC50) was found to be 59.5 µM in [1] (read-out: IC50) and 18.9 µM in test [3]. The viability at 1 µM in the test on SH-SY5Y [2] is 75.4%. Besides, the Activity worked out at 28.5% in [4], 1.06 in test [5] and 49.6% in [6].

As to `Cc1cc(C)nc(-n2nc(C)cc2O)n1`, the IC50 came to 18.5 µM in test [1] (read-out: IC50) and 14.6 µM in [3]. For the same compound, in the test on SH-SY5Y [2], the viability at 1 µM was 74.7%. Further, the Activity in test [4] is 51.6%; in test [5] it was 1.56; in test [6], 63.9%.

`Oc1cc(C(F)(F)F)nn1-c1ncc(Cl)cc1Cl`: the results for the concentration for half-maximal inhibition (IC50) in test [1] (read-out: IC50) and in test [3] were greater than 120 µM and 20.4 µM, respectively. In the test on SH-SY5Y [2], the viability at 1 µM came out at 76.6%. In addition, the Activity in test [4] stood at 29.4%; in test [5] it was 1.3; in test [6] it was 46%.

As to `O=C(O)/C=C/c1ccc(O)c(O)c1` [CAFFEIC ACID], in test [1], the IC50 came to 0.8 µg/mL.

As for `C[C@H]1[C@H](C)CC[C@]2(C(=O)O)CC[C@]3(C)C(=CC[C@@H]4[C@@]5(C)CC[C@H](O)C(C)(C)[C@@H]5CC[C@]43C)[C@H]12` [URSOLIC ACID], in [1], the concentration for half-maximal inhibition (IC50) is 59 µg/mL.

With `Oc1cc(C(F)(F)F)nn1-c1ccc(F)cn1`, the IC50 in test [1] (read-out: IC50) came to 43.1 µM; in test [3], 16.6 µM. Besides, in the test with SH-SY5Y [2], the viability at 1 µM is 71.8%. Moreover, the Activity in [4] turned out to be 35.7%; in test [5], 1.19; in test [6], 58.3%.

Regarding `Oc1cc(C(F)(F)F)nn1-c1ncccc1Cl`, the figures for the IC50 in test [1] (read-out: IC50) and in test [3] were greater than 120 µM and 19.5 µM, respectively. For the same compound, the viability at 1 µM with SH-SY5Y [2] worked out at 78.8%. Further, the Activity in test [4] was determined as 28.1%; in test [5] it was 1.13; in test [6], 40.4%.

On to `Cc1cc(O)n(-c2ncccc2C(F)(F)F)n1`, for which the viability at 1 µM in the test on SH-SY5Y [2] worked out at 77.4%. The Activity in [4] worked out at 2.85%; in test [5], 0.98; in test [6], 5.92%.

On to `OCc1ccc(-n2nc(C(F)(F)F)cc2O)nc1`, for which the results for the IC50 in test [1] (read-out: IC50) and in [3] were 63.9 µM and 28 µM, respectively. Further, the Activity entry is “Not active; Showed Weak Activity” in the test with Mus musculus [9], 40.4% in test [4], 0.91 in test [5] and 57.1% in test [6]. In the test with SH-SY5Y [2], the viability at 1 µM came to 78.1%.

For the compound `Oc1cc(C(F)(F)F)nn1-c1ncccn1`, the IC50 in [1] (read-out: IC50) is 45.3 µM; in test [3], 13.9 µM. The viability at 1 µM in the test on SH-SY5Y [2] was 72.7%. Further, the Activity in [4] was 36.4%; in test [5], 1.19; in test [6] it was 63.2%.

Regarding `Cc1nc(C)c(-n2nc(C(F)(F)F)cc2O)nc1C`, the IC50 in test [1] (read-out: IC50) was greater than 120 µM; in test [3], 19.7 µM. In addition, the viability at 1 µM in the test on SH-SY5Y [2] stood at 75.4%. Moreover, the Activity in test [4] turned out to be 30.6%; in [5], 1.34; in test [6], 55.6%.

For the compound `Cc1cc(O)n(-c2ccc(C(F)(F)F)cn2)n1`, the IC50 in test [1] (read-out: IC50) was found to be 15.2 µM; in test [3] it was 16.1 µM. The viability at 1 µM with SH-SY5Y [2] was 79.1%. The values for the Activity in test [4], in [5] and in [6] were 30.3%, 1.14 and 55%, respectively.

With `Cc1cc(O)n(-c2ncccc2Cl)n1`, the viability at 1 µM in the test with SH-SY5Y [2] is 71.5%. The Activity in [4] was 2.36%; in test [5] it was 0.9; in test [6], 4.56%.

With `Oc1ccc(/C=C/c2cc(O)cc(O)c2)cc1` [RESVERATROL], in test [17], the IC50 was found to be 65 µM.

With `Cc1cc(O)n(-c2ccccn2)n1`, the concentration for half-maximal inhibition (IC50) in test [1] (read-out: IC50) is 15.4 µM; in test [3], 12.3 µM. For the same compound, the viability at 1 µM with SH-SY5Y [2] came out at 81.5%. In addition, the Activity in [4] worked out at 35.1%; in test [5], 1.27; in test [6] it was 69.1%.

Regarding `O=C(c1cc(O)c(O)c(O)c1)c1cc(O)c(Br)cc1O`, the half-maximal inhibitory concentration (IC50) in test [1] was 14.4 µg/mL.

With `Oc1cc(C(F)(F)F)nn1-c1ccc(C(F)(F)F)cn1`, the concentration for half-maximal inhibition (IC50) in test [1] (read-out: IC50) was found to be 35.8 µM; in test [3] it was 14.8 µM. For the same compound, in the test on SH-SY5Y [2], the viability at 1 µM was 84.5%. The figures for the Activity in test [4], in [5] and in [6] were 28.4%, 1.1 and 68.1%, respectively.

For the compound `COc1cc(/C=C/C(=O)CC(=O)/C=C/c2ccc(O)c(OC)c2)ccc1O` [CURCUMIN], the concentration for half-maximal inhibition (IC50) in test [1] is 28 µg/mL.

The values are drawn from ChEMBL document CHEMBL6083244, “Identification of 3-methyl-1-(3-methylpyridin-2-yl)-1H-pyrazol-5-ol as promising neuroprotective agent” (Bioorg Med Chem Lett, 2024).
